Consider 35 compounds from patent US12528801B2 (Givaudan SA, priority 2019, dated 2026).

SMILES strings stand for the structures. Some results are limits rather than exact numbers.

T1 sequence (Q7Z2W7 whole entry): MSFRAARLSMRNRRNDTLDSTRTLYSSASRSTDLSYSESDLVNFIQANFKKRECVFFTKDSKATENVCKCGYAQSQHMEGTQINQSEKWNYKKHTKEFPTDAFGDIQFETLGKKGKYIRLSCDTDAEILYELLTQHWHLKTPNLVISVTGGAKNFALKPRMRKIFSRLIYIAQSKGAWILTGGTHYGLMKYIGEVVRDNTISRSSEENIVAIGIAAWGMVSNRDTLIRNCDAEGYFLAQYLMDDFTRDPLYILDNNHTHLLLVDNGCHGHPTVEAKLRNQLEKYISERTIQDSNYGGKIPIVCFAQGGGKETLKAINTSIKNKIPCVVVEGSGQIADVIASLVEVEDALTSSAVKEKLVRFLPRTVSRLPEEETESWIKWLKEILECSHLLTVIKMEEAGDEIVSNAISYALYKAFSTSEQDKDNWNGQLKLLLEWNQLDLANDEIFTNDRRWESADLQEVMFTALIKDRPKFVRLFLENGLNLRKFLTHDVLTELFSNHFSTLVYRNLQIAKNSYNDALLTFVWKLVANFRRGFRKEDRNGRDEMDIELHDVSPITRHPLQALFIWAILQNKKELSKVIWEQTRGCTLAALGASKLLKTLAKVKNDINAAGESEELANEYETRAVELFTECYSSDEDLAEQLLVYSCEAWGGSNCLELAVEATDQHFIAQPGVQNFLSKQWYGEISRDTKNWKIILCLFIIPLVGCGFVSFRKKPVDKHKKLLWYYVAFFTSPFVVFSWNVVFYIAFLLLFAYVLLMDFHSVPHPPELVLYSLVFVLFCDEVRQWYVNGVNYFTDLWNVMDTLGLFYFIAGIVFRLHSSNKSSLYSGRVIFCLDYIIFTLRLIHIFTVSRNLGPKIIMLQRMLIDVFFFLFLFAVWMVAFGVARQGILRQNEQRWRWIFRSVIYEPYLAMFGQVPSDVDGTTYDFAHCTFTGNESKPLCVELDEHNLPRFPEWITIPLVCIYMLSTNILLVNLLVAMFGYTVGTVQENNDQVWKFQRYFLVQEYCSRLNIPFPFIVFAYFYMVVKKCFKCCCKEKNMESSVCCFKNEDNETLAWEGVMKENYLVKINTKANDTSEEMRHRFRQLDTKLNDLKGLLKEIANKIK

This assay concerns the target T1, hTRPM8 (Homo sapiens, UniProt Q7Z2W7).
T1 construct: expressed in transfected cells
Briefly: Assay on TRPM8 modulators: calcium imaging (Fluo-4, Flexstation) in HEK293 cell line stably expressing hTRPM8. Format: cell-based. The note with it: HEK293 cells stably expressing hTRPM8; calcium influx, Fluo-4, Flexstation 3; sigmoidal dose-response fit. Here is the method: A HEK293 cell line stably expressing hTRPM8 was generated according to Klein of at, (Chem. Senses 36: […], 2011) and receptor activation was monitored by calcium imaging in a Flexstation. For Ca-imaging assays of TRPM8 channel activation, cells were seeded on day 0 at a density of 12000 cells per well in Dulbecco's modified Eagle medium (DMEM) containing 9% foetal bovine serum in black, clear bottom 96-well plates that had been coated with 0.001% polyethyleneimine (molecular weight=60 000, Acros Organics). On day 2, agonists were evaluated via calcium imaging using Fluo-4. Briefly, growth medium was discarded, and the cells were incubated in the dark for 1 h at 37° C. in 50 μL loading buffer consisting of 2.7 μM Fluo-4 AM (Invitrogen) and […] probenecid (Sigma-Aldrich) in DMEM (without serum). After incubation, the plates were washed five times with 100 μL of assay buffer (in mM: 130 NaCl, 5 KCl, 10 HEPES, 2 CaCl2, and 10 glucose, pH7.4.) and further incubated in the dark at room temperature for 30 min. The cells were then washed five times with 100 μL assay buffer and then calcium influx to serial dilutions of inventive compounds were measured in a Flexstation 3 (Molecular Devices). Receptor activation was initiated following addition of 20 μl of a 10-fold concentrated ligand stock solution, which is also prepared in assay buffer. Fluorescence was continuously monitored for 15 seconds prior to ligand addition and for 105 seconds after ligand addition, for a total of 120 seconds. Maximal receptor activation in relation to solvent control and relative to 31.6 μM menthol is determined. Data from serial dilutions were processed with a KNIME workflow to fit a sigmoidal dose-response curve and to extrapolate […].
On to `CSC(C)C(=O)N1CCCCC1c1nc(-c2occc2C)c[nH]1` (centres unmarked) [Compound 29, 1-(2-(4-(3-methylfuran-2-yl)-1H-imidazol-2-yl)piperidin-1-yl)-2-(methylthio)propan-1-one], for which the EC50 is 50 to 300 nM.

Take `CSC(C)C(=O)N1CCCCC1c1nc(-c2ccc(CN3CCS(=O)(=O)CC3)cc2)c[nH]1` (centres unmarked) [Compound 30, 1-(2-(4-(4-((1,1-dioxidothiomorpholino)methyl)phenyl)-1H-imidazol-2-yl)piperidin-1-yl)-2-(methylthio)propan-1-one]: the EC50 lay in the range of 1000 to 35000 nM. To `CSC(C)C(=O)N1CCCCC1c1nc(-c2ccc(C(C)O)cc2)c[nH]1` (centres unmarked) [Compound 31, 1-(2-(4-(4-(1-hydroxyethyl)phenyl)-1H-imidazol-2-yl)piperidin-1-yl)-2-(methylthio)propan-1-one] belongs 50 to 300 nM; to `CSC(C)C(=O)N1CCCCC1c1nc(-c2ccc(OC(F)F)c(F)c2)c[nH]1` (centres unmarked) [Compound 32, 1-(2-(4-(4-(difluoromethoxy)-3-fluorophenyl)-1H-imidazol-2-yl)piperidin-1-yl)-2-(methylthio)propan-1-one], less than 50 nM; to `CSC(C)C(=O)N1CCCCC1c1nc(-c2cscc2C(F)F)c[nH]1` (centres unmarked) [Compound 33], 50 to 300 nM.

As to `CSC(C)C(=O)N1CCCCC1c1nc(-c2ccc(S(C)(=O)=O)cc2)c[nH]1` (centres unmarked) [Compound 34, 1-(2-(4-(4-(methylsulfonyl)phenyl)-1H-imidazol-2-yl)piperidin-1-yl)-2-(methylthio)propan-1-one], the EC50 fell in the range of 1000 to 35000 nM. To `CSC(C)C(=O)N1CCCCC1c1nc(-c2ccc(S(C)(=O)=O)cc2)c[nH]1` (centres unmarked) [Compound 35] belongs 1000 to 35000 nM; to `CSC(C)C(=O)N1CCCCC1c1nc(-c2ccc(C3CCC3)cc2)c[nH]1` (centres unmarked) [Compound 36, 1-(2-(4-(4-cyclobutylphenyl)-1H-imidazol-2-yl)piperidin-1-yl)-2-(methylthio)propan-1-one], less than 50 nM; to `CSC(C)C(=O)N1CCCCC1c1nc(-c2ccc(C3CC3)cc2F)c[nH]1` (centres unmarked) [Compound 37, 1-(2-(4-(4-cyclopropyl-2-fluorophenyl)-1H-imidazol-2-yl)piperidin-1-yl)-2-(methylthio)propan-1-one], less than 50 nM. Turning to `CSC(C)C(=O)N1CCCCC1c1nc(-c2ccc(F)cc2)c[nH]1` (centres unmarked) [Compound 38, 1-(2-(4-(4-fluorophenyl)-1H-imidazol-2-yl)piperidin-1-yl)-2-(methylthio)propan-1-one], the EC50 was less than 50 nM. For `CSC(C)C(=O)N1CCCCC1c1nc(-c2ccc(O)cc2)c[nH]1` (centres unmarked) [Compound 39, 1-(2-(4-(4-hydroxyphenyl)-1H-imidazol-2-yl)piperidin-1-yl)-2-(methylthio)propan-1-one] the value was less than 50 nM.

As to `CSC(C)C(=O)N1CCCCC1c1nc(-c2ccc(C(C)C)cc2)c[nH]1` (centres unmarked) [Compound 40, 1-(2-(4-(4-isopropylphenyl)-1H-imidazol-2-yl)piperidin-1-yl)-2-(methylthio)propan-1-one], the EC50 is less than 50 nM. For `CSC(C)C(=O)N1CCCCC1c1nc(-c2ccc(C)c(C(F)(F)F)c2)c[nH]1` (centres unmarked) [Compound 41, 1-(2-(4-(4-methyl-3-(trifluoromethyl)phenyl)-1H-imidazol-2-yl)piperidin-1-yl)-2-(methylthio)propan-1-one] the value was 50 to 300 nM; for `CSC(C)C(=O)N1CCCCC1c1nc(-c2ccc(CN(C)C)s2)c[nH]1` (centres unmarked) [Compound 42, 1-(2-(4-(5-((dimethylamino)methyl)thiophen-2-yl)-1H-imidazol-2-yl)piperidin-1-yl)-2-(methylthio)propan-1-one], 1000 to 35000 nM.

Turning to `CSC(C)C(=O)N1CCCCC1c1nc(-c2ccc(C)o2)c[nH]1` (centres unmarked) [Compound 43, 1-(2-(4-(5-methylfuran-2-yl)-1H-imidazol-2-yl)piperidin-1-yl)-2-(methylthio)propan-1-one], the EC50 is less than 50 nM.

Regarding `CSC(C)C(=O)N1CCCCC1c1nc(-c2cncc(C)c2)c[nH]1` (centres unmarked) [Compound 44, 1-(2-(4-(5-methylpyridin-3-yl)-1H-imidazol-2-yl)piperidin-1-yl)-2-(methylthio)propan-1-one], the EC50 was in the range of 50 to 300 nM. For `CSC(C)C(=O)N1CCCCC1c1nc(-c2ccc(C)nc2)c[nH]1` (centres unmarked) [Compound 45, 1-(2-(4-(6-methylpyridin-3-yl)-1H-imidazol-2-yl)piperidin-1-yl)-2-(methylthio)propan-1-one], the concentration for a half-maximal effect (EC50) is less than 50 nM. Regarding `CSC(C)C(=O)N1CCCCC1c1nc(-c2ccc3ccsc3c2)c[nH]1` (centres unmarked) [Compound 46, 1-(2-(4-(benzo[b]thiophen-6-yl)-1H-imidazol-2-yl)piperidin-1-yl)-2-(methylthio)propan-1-one], the EC50 was less than 50 nM. On to `CSC(C)C(=O)N1CCCCC1c1nc(C)c(-c2ccccc2)[nH]1` (centres unmarked) [Compound 47, 1-(2-(4-methyl-5-phenyl-1H-imidazol-2-yl)piperidin-1-yl)-2-(methylthio)propan-1-one], for which the EC50 lay within 50 to 300 nM. To `O=C(CSC(F)(F)F)N1CCCCC1c1nc(-c2ccccc2)c[nH]1` (centres unmarked) [Compound 48, 1-(2-(4-phenyl-1H-imidazol-2-yl)piperidin-1-yl)-2-((trifluoromethyl)thio)ethan-1-one] belongs 1000 to 35000 nM; to `CCCC(=O)N1CCCCC1c1nc(-c2ccccc2)c[nH]1` (centres unmarked) [Compound 49, 1-(2-(4-phenyl-1H-imidazol-2-yl)piperidin-1-yl)butan-1-one], 300 to 1000 nM. To `C=CC=CCC(=O)N1CCCCC1c1nc(-c2ccccc2)c[nH]1` (centres unmarked) [Compound 50, 1-(2-(4-phenyl-1H-imidazol-2-yl)piperidin-1-yl)hexa-3,5-dien-1-one] belongs 1000 to 35000 nM.

As to `C=CCCC(=O)N1CCCCC1c1nc(-c2ccccc2)c[nH]1` (centres unmarked) [Compound 51, 1-(2-(4-phenyl-1H-imidazol-2-yl)piperidin-1-yl)pent-4-en-1-one], the EC50 lay within 300 to 1000 nM.

Turning to `CCC(=O)N1CCCCC1c1nc(-c2ccccc2)c[nH]1` (centres unmarked) [Compound 52, 1-(2-(4-phenyl-1H-imidazol-2-yl)piperidin-1-yl)propan-1-one], the EC50 lay in the range of 1000 to 35000 nM. For `CSC(C)C(=O)N1CCCCC1c1ncc(-c2cccc(F)c2F)[nH]1` (centres unmarked) [Compound 53, 1-(2-(5-(2,3-difluorophenyl)-1H-imidazol-2-yl)piperidin-1-yl)-2-(methylthio)propan-1-one] the value was 50 to 300 nM; for `CSC(C)C(=O)N1CCCCC1c1ncc(-c2ccc(F)cc2F)[nH]1` (centres unmarked) [Compound 54, 1-(2-(5-(2,4-difluorophenyl)-1H-imidazol-2-yl)piperidin-1-yl)-2-(methylthio)propan-1-one], less than 50 nM.

For `CSC(C)C(=O)N1CCCCC1c1ncc(-c2cc(F)ccc2F)[nH]1` (centres unmarked) [Compound 55, 1-(2-(5-(2,5-difluorophenyl)-1H-imidazol-2-yl)piperidin-1-yl)-2-(methylthio)propan-1-one], the EC50 is less than 50 nM. In the case of `COc1ccc(-c2cnc(C3CCCCN3C(=O)C(C)SC)[nH]2)c(F)c1` (centres unmarked) [Compound 56, 1-(2-(5-(2-fluoro-4-methoxyphenyl)-1H-imidazol-2-yl)piperidin-1-yl)-2-(methylthio)propan-1-one], the EC50 was less than 50 nM.

For the compound `CSC(C)C(=O)N1CCCCC1c1ncc(-c2ccc(C)cc2F)[nH]1` (centres unmarked) [Compound 57, 1-(2-(5-(2-fluoro-4-methylphenyl)-1H-imidazol-2-yl)piperidin-1-yl)-2-(methylthio)propan-1-one], the EC50 was less than 50 nM. In the case of `COc1ncc(-c2cnc(C3CCCCN3C(=O)C(C)SC)[nH]2)cn1` (centres unmarked) [Compound 58, 1-(2-(5-(2-methoxypyrimidin-5-yl)-1H-imidazol-2-yl)piperidin-1-yl)-2-(methylthio)propan-1-one], the EC50 fell in the range of 300 to 1000 nM.

Turning to `CNc1cccc(-c2cnc(C3CCCCN3C(=O)C(C)SC)[nH]2)c1` (centres unmarked) [Compound 59, 1-(2-(5-(3-(methylamino)phenyl)-1H-imidazol-2-yl)piperidin-1-yl)-2-(methylthio)propan-1-one], the EC50 is 50 to 300 nM. For `CSC(C)C(=O)N1CCCCC1c1ncc(-c2ccc(F)c(F)c2)[nH]1` (centres unmarked) [Compound 60, 1-(2-(5-(3,4-difluorophenyl)-1H-imidazol-2-yl)piperidin-1-yl)-2-(methylthio)propan-1-one] the value was less than 50 nM; for `C=CC(C)C(=O)N1CCCCC1c1ncc(-c2ccc(F)c(F)c2)[nH]1` (centres unmarked) [Compound 61, 1-(2-(5-(3,4-difluorophenyl)-1H-imidazol-2-yl)piperidin-1-yl)-2-methylbut-3-en-1-one], less than 50 nM. For `COc1ccc(-c2cnc(C3CCCCN3C(=O)C(C)SC)[nH]2)cc1OC` (centres unmarked) [Compound 62, 1-(2-(5-(3,4-dimethoxyphenyl)-1H-imidazol-2-yl)piperidin-1-yl)-2-(methylthio)propan-1-one], the EC50 was in the range of 1000 to 35000 nM. For `CSC(C)C(=O)N1CCCCC1c1ncc(-c2ccc(C)c(C)c2)[nH]1` (centres unmarked) [Compound 63, 1-(2-(5-(3,4-dimethylphenyl)-1H-imidazol-2-yl)piperidin-1-yl)-2-(methylthio)propan-1-one] the value was less than 50 nM.
